pIC50: −log10 of the molar value.

In experiment [1] the target is T1, Integrin alpha-4/beta-1 (Homo sapiens, UniProt P05556+P13612). As to the kind of experiment: Concentration required to inhibit the VCAM-Very late antigen4 (VLA4) interaction in ELISA cell-based assay. The class given is functional.
In experiment [2] the target is T1, Integrin alpha-4/beta-1. Put plainly: Concentration required to inhibit the VCAM-Very late antigen4 (VLA4) interaction in Ramos cell-based assay. The class given is functional.

T1 sequence (P05556 whole entry): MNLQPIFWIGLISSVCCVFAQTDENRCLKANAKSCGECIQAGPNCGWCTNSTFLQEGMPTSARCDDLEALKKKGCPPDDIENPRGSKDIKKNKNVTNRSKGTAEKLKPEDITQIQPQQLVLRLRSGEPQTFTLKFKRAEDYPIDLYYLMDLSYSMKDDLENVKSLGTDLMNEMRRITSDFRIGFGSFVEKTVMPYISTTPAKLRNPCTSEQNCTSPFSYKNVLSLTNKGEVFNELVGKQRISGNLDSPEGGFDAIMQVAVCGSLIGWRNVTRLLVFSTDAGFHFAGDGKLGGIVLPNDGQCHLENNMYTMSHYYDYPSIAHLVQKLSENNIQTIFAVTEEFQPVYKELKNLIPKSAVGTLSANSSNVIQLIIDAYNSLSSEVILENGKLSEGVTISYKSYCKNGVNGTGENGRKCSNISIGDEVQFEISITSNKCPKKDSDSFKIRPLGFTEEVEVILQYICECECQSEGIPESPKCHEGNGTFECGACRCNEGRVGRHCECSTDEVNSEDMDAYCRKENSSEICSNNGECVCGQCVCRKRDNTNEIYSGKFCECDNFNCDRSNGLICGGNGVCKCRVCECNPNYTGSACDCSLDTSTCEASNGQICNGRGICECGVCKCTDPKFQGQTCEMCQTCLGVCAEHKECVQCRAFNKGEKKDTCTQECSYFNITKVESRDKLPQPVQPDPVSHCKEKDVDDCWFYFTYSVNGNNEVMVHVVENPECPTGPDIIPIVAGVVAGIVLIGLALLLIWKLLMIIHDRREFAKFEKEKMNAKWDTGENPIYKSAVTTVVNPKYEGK
T1 sequence (P13612 whole entry): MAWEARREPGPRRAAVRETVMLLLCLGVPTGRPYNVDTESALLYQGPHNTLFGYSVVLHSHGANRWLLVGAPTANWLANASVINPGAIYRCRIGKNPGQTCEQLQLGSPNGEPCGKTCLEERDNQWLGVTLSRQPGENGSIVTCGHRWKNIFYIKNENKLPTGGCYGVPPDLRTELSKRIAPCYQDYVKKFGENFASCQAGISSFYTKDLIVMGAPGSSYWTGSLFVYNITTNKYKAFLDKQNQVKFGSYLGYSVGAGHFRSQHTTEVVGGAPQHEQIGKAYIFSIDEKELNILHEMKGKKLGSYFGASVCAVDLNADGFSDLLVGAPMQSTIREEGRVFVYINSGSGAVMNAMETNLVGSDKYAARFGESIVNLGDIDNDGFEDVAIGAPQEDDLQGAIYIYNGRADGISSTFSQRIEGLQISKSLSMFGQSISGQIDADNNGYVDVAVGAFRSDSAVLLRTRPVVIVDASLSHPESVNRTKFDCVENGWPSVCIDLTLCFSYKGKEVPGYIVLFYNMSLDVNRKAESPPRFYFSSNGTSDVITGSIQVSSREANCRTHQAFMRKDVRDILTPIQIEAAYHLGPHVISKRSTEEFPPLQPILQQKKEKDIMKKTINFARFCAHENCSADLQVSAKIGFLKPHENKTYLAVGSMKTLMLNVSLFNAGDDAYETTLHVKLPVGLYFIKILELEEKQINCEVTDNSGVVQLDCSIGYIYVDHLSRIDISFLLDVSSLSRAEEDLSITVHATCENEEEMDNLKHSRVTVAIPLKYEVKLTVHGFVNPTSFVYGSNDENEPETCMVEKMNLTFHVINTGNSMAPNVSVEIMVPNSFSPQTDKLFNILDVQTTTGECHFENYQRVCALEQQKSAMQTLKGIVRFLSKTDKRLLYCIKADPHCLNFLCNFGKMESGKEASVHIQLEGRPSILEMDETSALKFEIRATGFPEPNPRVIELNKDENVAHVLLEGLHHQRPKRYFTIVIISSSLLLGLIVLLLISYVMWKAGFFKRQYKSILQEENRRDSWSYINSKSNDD

A word on the pIC50: it is the negative decadic logarithm of the IC50, by convention in mol/L. Consider `O=C(O)[C@H](Cc1ccc(C(=O)N2CCN(C(=O)c3ccccc3)CC2)cc1)NC(=O)[C@@H]1CCC(=O)N1Cc1ccccc1`, for which the pIC50 against Integrin alpha-4/beta-1 [1] is 8.52; on Integrin alpha-4/beta-1 [2], 6.02.

Turning to `O=C(O)[C@H](Cc1ccc(C(=O)N2CCN(S(=O)(=O)c3ccccc3)CC2)cc1)NC(=O)[C@@H]1CCC(=O)N1Cc1ccccc1`, the pIC50 was 7.96 against Integrin alpha-4/beta-1 [1] and 5.66 against Integrin alpha-4/beta-1 [2].

`O=C(O)[C@H](Cc1ccc(C(=O)N2CCN(C(=O)c3cccc(O)c3)CC2)cc1)NC(=O)[C@@H]1CCC(=O)N1Cc1ccccc1`: the negative-log IC50 (pIC50) against Integrin alpha-4/beta-1 [1] is 8.52; on Integrin alpha-4/beta-1 [2], 6.33.

Turning to `CC(=O)N1CCN(C(=O)c2ccc(C[C@H](NC(=O)[C@@H]3CCC(=O)N3Cc3ccccc3)C(=O)O)cc2)CC1`, the negative logarithm of the IC50 (pIC50) on Integrin alpha-4/beta-1 [1] is 8.15; at Integrin alpha-4/beta-1 [2] it was 5.26.

Turning to `CCN(CC)C(=O)C(Cc1ccc(O)cc1)NC(=O)c1cccc(C[C@H](NC(=O)[C@@H]2CCC(=O)N2Cc2ccccc2)C(=O)O)c1` (stereo not given in full), the pIC50 is 6.62 against Integrin alpha-4/beta-1 [1] and 4.61 at Integrin alpha-4/beta-1 [2].

At Integrin alpha-4/beta-1 [1], `COc1ccc(CNC(=O)c2ccc(C[C@H](NC(=O)[C@@H]3CCC(=O)N3Cc3ccccc3)C(=O)O)cc2)cc1` had a pIC50 of 7.21.

In the case of `C[C@H](NC(=O)c1ccc(C[C@H](NC(=O)[C@@H]2CCC(=O)N2Cc2ccccc2)C(=O)O)cc1)c1ccccc1`, on Integrin alpha-4/beta-1 [1], the pIC50 is 7.57.

Take `O=C(Nc1ccc(C[C@H](NC(=O)[C@H]2CCC(=O)N2Cc2ccccc2)C(=O)O)cc1)c1c(Cl)cccc1Cl`: at Integrin alpha-4/beta-1 [1], the pIC50 was 9.43.

For the molecule `COc1ccc(S(=O)(=O)N2CCN(C(=O)c3cccc(C[C@H](NC(=O)[C@@H]4CCC(=O)N4Cc4ccccc4)C(=O)O)c3)CC2)cc1`, the pIC50 against Integrin alpha-4/beta-1 [1] was 7.14; against Integrin alpha-4/beta-1 [2], 5.11.

Take `CC(=O)N[C@@H](Cc1ccc(O)cc1)C(=O)Nc1ccc(C[C@H](NC(=O)[C@H]2CCC(=O)N2Cc2ccccc2)C(=O)O)cc1`: the values for the pIC50 against Integrin alpha-4/beta-1 [1] and on Integrin alpha-4/beta-1 [2] were 8.19 and 5.68, respectively.

In turn, `O=C(O)[C@H](Cc1cccc(C(=O)N2CCN(C(=O)c3ccccc3)CC2)c1)NC(=O)[C@@H]1CCC(=O)N1Cc1ccccc1` had a pIC50 against Integrin alpha-4/beta-1 [1] of 6.92.

At Integrin alpha-4/beta-1 [1], `O=C(Nc1ccccc1)c1ccc(C[C@H](NC(=O)[C@@H]2CCC(=O)N2Cc2ccccc2)C(=O)O)cc1` had a pIC50 of 7.24. Against the preceding molecule, the pIC50 is 0.32 log units higher.

At Integrin alpha-4/beta-1 [1], `O=C(O)[C@H](Cc1cccc(C(=O)N2CCN(S(=O)(=O)c3ccccc3)CC2)c1)NC(=O)[C@@H]1CCC(=O)N1Cc1ccccc1` had a pIC50 of 7.22.

As to `CCN(CC)C(=O)C(Cc1ccc(O)cc1)NC(=O)c1ccc(C[C@H](NC(=O)[C@@H]2CCC(=O)N2Cc2ccccc2)C(=O)O)cc1` (stereo not given in full), the results for the pIC50 against Integrin alpha-4/beta-1 [1] and on Integrin alpha-4/beta-1 [2] were 8.30 and 6.26, respectively.

For `O=C(O)[C@H](Cc1ccc(C(=O)N2CCN(C(=O)c3ccc(O)cc3)CC2)cc1)NC(=O)[C@@H]1CCC(=O)N1Cc1ccccc1`, the values for the pIC50 on Integrin alpha-4/beta-1 [1] and at Integrin alpha-4/beta-1 [2] were 8.52 and 5.77, respectively.

As to `CC(=O)c1ccccc1NC(=O)c1ccc(C[C@H](NC(=O)[C@@H]2CCC(=O)N2Cc2ccccc2)C(=O)O)cc1`, the pIC50 was 8.40 on Integrin alpha-4/beta-1 [1] and 6.03 on Integrin alpha-4/beta-1 [2].

In the case of `COc1ccc(S(=O)(=O)N2CCN(C(=O)c3ccc(C[C@H](NC(=O)[C@@H]4CCC(=O)N4Cc4ccccc4)C(=O)O)cc3)CC2)cc1`, the figures for the pIC50 against Integrin alpha-4/beta-1 [1] and on Integrin alpha-4/beta-1 [2] were 7.92 and 5.02, respectively.

As for `COc1ccc(C(=O)N2CCN(C(=O)c3ccc(C[C@H](NC(=O)[C@@H]4CCC(=O)N4Cc4ccccc4)C(=O)O)cc3)CC2)cc1`, the pIC50 against Integrin alpha-4/beta-1 [1] was 8.40; at Integrin alpha-4/beta-1 [2], 6.49.
